Results taken from patent US9579317B2, “Peptide-drug conjugates” (JiaRui Biopharmaceuticals, Ltd., priority 2014, dated 2017).

Assays:
[1] = system: Balb/c mice; assay: In vivo maximum tolerated dose (MTD) in Balb/c mice; set-up: mortality: dose or concentration left out as unconfirmed
[2] = system: CT-26 syngenic colon cancer model; assay: In vivo antitumor activity, subcutaneous CT-26 syngenic colon cancer model; set-up: species or system Balb/c mice; settings: QW, intravenous, three injections
Method: The tumoricidal effect of peptide-drug conjugate N^α-succinamic acid-Ala-Ala-Asn-PABC-mitomycin [8] was evaluated on subcutaneous CT-26 syngenic colon cancer model in Balb/c mice. Each mouse was inoculated subcutaneously at the right flank region with CT-26 tumor cells (5×10^5) in 0.1 mL of PBS.

[3] = system: HepG2; assay: cells; format: cell-based, human; settings: 72 hours, n = 3, mean
Method: (§1) Monolayer cultures of human carcinoma cells were harvested using trypsin-EDTA, and the cells counted and resuspended to 1×10^5/mL in RPMI-1640 or DMEM containing 10% FBS. Cells (0.1 mL/well) were added to each well of 96 well microtiter plates and incubated overnight at 37° C. in a humidified atmosphere of 5% CO2. […] All dilutions were performed in triplicate. The drug treated cells were incubated for another 72 hours at 37° C. in a humidified atmosphere of 5% CO2. 50 μL of cold TCA (50%, wt/vol) was added to each well and incubated the plates at 4° C. for 1 hour. The plates were washed with slow-running tap water for three times and the dried at room temperature. 50 μL of Sulforhodamine B solution (0.4%, wt/vol) was added to each well and the plates were left at room temperature for 1 hour. The plates were rinsed with acetic acid solution (1%, vol/vol) to remove the unbound dye and dried at room temperature. 200 μL of 10 mM Tris base solution was added to each well and the plates were shaken on a gyratory shaker for 15 minutes to solubilize the protein-bound dye. Well optical density at 510 nm was measured in a microplate reader, and the IC50 was calculated by GraphPad from three separated experiments with triplicate in each experiment and expressed as mean (Table 1).

[4] = system: HCT116; assay: cells; format: cell-based, human; settings: 72 hours, n = 3, mean
Method: as §1

[5] = Human plasma stability
Method: 100 μL aliquots were removed at the time points of 0, 0.25, 0.5, 1, 2, 4, 6 hours and diluted with 400 μL cold acetonitrile containing tolbutamide (200 ng/mL) as internal standard. The samples were centrifuged at 14,000 rpm for 4 minutes. 100 μL of above supernatants were diluted with 300 μL of 0.1% formic acid HPLC water and 10 μL was taken for LC/MS/MS analysis (column: C-18; mobile phase: 0.1% formic acid in water/0.1% formic acid in acetonitrile; ion transition: Q1 ion (m/z)=840.5, Q2 ion (m/z)=462.2).

[6] = 25, 50 and 100 mg/kg, once per week, three injections total for 24 days

SMILES | appearance [1, 6] | body weight (loss) [1, 6] | increase of mice maximum tolerated dose (MTD) as compared with parent drug mitomycin ([1]; Balb/c mice) | tumor growth T/C versus untreated control ([2]; 50 mg/kg, p<0.01) | IC50 [3] | IC50 [4] | free drug mitomycin detected ([5]; human plasma incubation, 10 μM, 37° C.) | half-life at 10 μM ([5]; human, plasma) | mortality [1] | tumor growth T/C ([2]; 5 mg/kg (MTD dose)) | IC50 ([3]; Homo sapiens, HepG2) | IC50 ([4]; Homo sapiens, HCT-116)
CO[C@@]12[C@H](COC(N)=O)C3=C(C(=O)C(C)=C(N)C3=O)N1C[C@H]1[C@@H]2N1C(=O)OCc1ccc(NC(=O)[C@H](CC(N)=O)NC(=O)[C@H](C)NC(=O)[C@H](C)NC(=O)CCC(=O)O)cc1 [compound 8, N^α-succinamic acid-Ala-Ala-Asn-PABC-mitomycin] | no abnormal appearance | < 10% | at least 20 fold | 36.4% | 2480 nM | 6650 nM | Less than 2% | > 15 h | – | – | – | –
CO[C@@]12[C@H](COC(N)=O)C3=C(C(=O)C(C)=C(N)C3=O)N1C[C@@H]1N[C@@H]12 [mitomycin, reference compound] | – | – | – | – | – | – | – | – | animal death was observed | 50.4% | 143 nM | 116 nM
